According to patent US20230049952A1, “METHODS AND COMPOUNDS FOR RESTORING MUTANT P53 FUNCTION” (PMV Pharmaceuticals, Inc., priority 2020, published 2023):

Test system: p53 signaling pathway in MT373 tumors
Experiment: MT373 syngeneic sarcoma model: mouse p53 signaling pathway profiling panel
Format: in vivo

CCn1c(C#CCNc2ccccc2)cc2cc(CNC3CCN(C)CC3)ccc21 [Compound 1, 1-Anilino-3-{1-ethyl-5-[(1-methyl-4-piperidylamino)methyl]-1H-indol-2-yl}-2-propyne]
Dnmt1 fold increase or percent reduction vs vehicle control (75 mg/kg BIDx1, 48 h): 1.11 fold or % | E2f1 fold increase or percent reduction vs vehicle control (75 mg/kg BIDx1, 48 h): 1.24 fold or % | E2f3 fold increase or percent reduction vs vehicle control (75 mg/kg BIDx1, 48 h): 30.44 fold or % | Egfr fold increase or percent reduction vs vehicle control (75 mg/kg BIDx1, 48 h): 34.80 fold or % | Egr1 fold increase or percent reduction vs vehicle control (75 mg/kg BIDx1, 48 h): 39.68 fold or % | Ep300 fold increase or percent reduction vs vehicle control (75 mg/kg BIDx1, 48 h): 1.01 fold or % | Ercc1 fold increase or percent reduction vs vehicle control (75 mg/kg BIDx1, 48 h): 43.22 fold or % | Esr1 fold increase or percent reduction vs vehicle control (75 mg/kg BIDx1, 48 h): 1.78 fold or % | Fadd fold increase or percent reduction vs vehicle control (75 mg/kg BIDx1, 48 h): 1.13 fold or % | Fas fold increase or percent reduction vs vehicle control (75 mg/kg BIDx1, 48 h): 10.67 fold or % | Fasl fold increase or percent reduction vs vehicle control (75 mg/kg BIDx1, 48 h): 1.48 fold or % | Foxo3 fold increase or percent reduction vs vehicle control (75 mg/kg BIDx1, 48 h): 3.18 fold or % | Gadd45a fold increase or percent reduction vs vehicle control (75 mg/kg BIDx1, 48 h): 49.07 fold or % | Hif1a fold increase or percent reduction vs vehicle control (75 mg/kg BIDx1, 48 h): 1.22 fold or % | Il6 fold increase or percent reduction vs vehicle control (75 mg/kg BIDx1, 48 h): 80.18 fold or % | Jun fold increase or percent reduction vs vehicle control (75 mg/kg BIDx1, 48 h): 29.72 fold or % | Kras fold increase or percent reduction vs vehicle control (75 mg/kg BIDx1, 48 h): 1.01 fold or % | Lig4 fold increase or percent reduction vs vehicle control (75 mg/kg BIDx1, 48 h): 1.05 fold or % | Mdm2 fold increase or percent reduction vs vehicle control (75 mg/kg BIDx1, 48 h): 12.55 fold or % | Mdm4 fold increase or percent reduction vs vehicle control (75 mg/kg BIDx1, 48 h): 19.35 fold or % | Mel1 fold increase or percent reduction vs vehicle control (75 mg/kg BIDx1, 48 h): 31.09 fold or % | Mlh1 fold increase or percent reduction vs vehicle control (75 mg/kg BIDx1, 48 h): 7.78 fold or % | Msh2 fold increase or percent reduction vs vehicle control (75 mg/kg BIDx1, 48 h): 11.63 fold or % | Myod1 fold increase or percent reduction vs vehicle control (75 mg/kg BIDx1, 48 h): 4.06 fold or % | Nf1 fold increase or percent reduction vs vehicle control (75 mg/kg BIDx1, 48 h): 29.60 fold or % | Nfkb1 fold increase or percent reduction vs vehicle control (75 mg/kg BIDx1, 48 h): 7.16 fold or % | Pcna fold increase or percent reduction vs vehicle control (75 mg/kg BIDx1, 48 h): 38.45 fold or % | Pmaip1 fold increase or percent reduction vs vehicle control (75 mg/kg BIDx1, 48 h): 1.15 fold or % | Ppm1d fold increase or percent reduction vs vehicle control (75 mg/kg BIDx1, 48 h): 4.68 fold or % | Prc1 fold increase or percent reduction vs vehicle control (75 mg/kg BIDx1, 48 h): 16.43 fold or % | Prkca fold increase or percent reduction vs vehicle control (75 mg/kg BIDx1, 48 h): 13.73 fold or % | Pten fold increase or percent reduction vs vehicle control (75 mg/kg BIDx1, 48 h): 1.01 fold or % | Pttg1 fold increase or percent reduction vs vehicle control (75 mg/kg BIDx1, 48 h): 1.08 fold or % | Rb1 fold increase or percent reduction vs vehicle control (75 mg/kg BIDx1, 48 h): 2.55 fold or % | Rela fold increase or percent reduction vs vehicle control (75 mg/kg BIDx1, 48 h): 1.07 fold or % | Rprm fold increase or percent reduction vs vehicle control (75 mg/kg BIDx1, 48 h): 2.09 fold or % | Serpinb5 fold increase or percent reduction vs vehicle control (75 mg/kg BIDx1, 48 h): 1.90 fold or % | Sesn2 fold increase or percent reduction vs vehicle control (75 mg/kg BIDx1, 48 h): 1.57 fold or % | Sfn fold increase or percent reduction vs vehicle control (75 mg/kg BIDx1, 48 h): 1.00 fold or % | Sirt1 fold increase or percent reduction vs vehicle control (75 mg/kg BIDx1, 48 h): 1.01 fold or % | Stat1 fold increase or percent reduction vs vehicle control (75 mg/kg BIDx1, 48 h): 1.73 fold or % | Tnf fold increase or percent reduction vs vehicle control (75 mg/kg BIDx1, 48 h): 1.36 fold or % | Traf1 fold increase or percent reduction vs vehicle control (75 mg/kg BIDx1, 48 h): 1.38 fold or % | Trp53bp2 fold increase or percent reduction vs vehicle control (75 mg/kg BIDx1, 48 h): 1.06 fold or % | Trp53 fold increase or percent reduction vs vehicle control (75 mg/kg BIDx1, 48 h): 1.16 fold or % | Apex1 fold increase or percent reduction vs vehicle control (75 mg/kg BIDx1, 72 h): 24.49 fold or % | Atm fold increase or percent reduction vs vehicle control (75 mg/kg BIDx1, 72 h): 12.27 fold or % | Atr fold increase or percent reduction vs vehicle control (75 mg/kg BIDx1, 72 h): 1.01 fold or % | Bag1 fold increase or percent reduction vs vehicle control (75 mg/kg BIDx1, 72 h): 25.72 fold or % | Bax fold increase or percent reduction vs vehicle control (75 mg/kg BIDx1, 72 h): 20.93 fold or % | Bbc3 fold increase or percent reduction vs vehicle control (75 mg/kg BIDx1, 72 h): 1.08 fold or % | Bcl2 fold increase or percent reduction vs vehicle control (75 mg/kg BIDx1, 72 h): 2.76 fold or % | Bid fold increase or percent reduction vs vehicle control (75 mg/kg BIDx1, 72 h): 1.12 fold or % | Birc5 fold increase or percent reduction vs vehicle control (75 mg/kg BIDx1, 72 h): 12.81 fold or % | Brca1 fold increase or percent reduction vs vehicle control (75 mg/kg BIDx1, 72 h): 10.57 fold or % | Brca2 fold increase or percent reduction vs vehicle control (75 mg/kg BIDx1, 72 h): 12.51 fold or % | Btg2 fold increase or percent reduction vs vehicle control (75 mg/kg BIDx1, 72 h): 16.69 fold or % | Casp2 fold increase or percent reduction vs vehicle control (75 mg/kg BIDx1, 72 h): 5.88 fold or % | Ccnb1 fold increase or percent reduction vs vehicle control (75 mg/kg BIDx1, 72 h): 10.10 fold or % | Ccne1 fold increase or percent reduction vs vehicle control (75 mg/kg BIDx1, 72 h): 1.09 fold or % | Ccng1 fold increase or percent reduction vs vehicle control (75 mg/kg BIDx1, 72 h): 9.69 fold or % | Ccnh fold increase or percent reduction vs vehicle control (75 mg/kg BIDx1, 72 h): 11.39 fold or % | Cdc25a fold increase or percent reduction vs vehicle control (75 mg/kg BIDx1, 72 h): 7.34 fold or % | Cdk1 fold increase or percent reduction vs vehicle control (75 mg/kg BIDx1, 72 h): 23.09 fold or % | Cdk4 fold increase or percent reduction vs vehicle control (75 mg/kg BIDx1, 72 h): 22.60 fold or % | Cdkn1a fold increase or percent reduction vs vehicle control (75 mg/kg BIDx1, 72 h): 1.42 fold or % | Cdkn2a fold increase or percent reduction vs vehicle control (75 mg/kg BIDx1, 72 h): 39.53 fold or % | Chek1 fold increase or percent reduction vs vehicle control (75 mg/kg BIDx1, 72 h): 20.93 fold or % | Cradd fold increase or percent reduction vs vehicle control (75 mg/kg BIDx1, 72 h): 31.95 fold or % | Cul9 fold increase or percent reduction vs vehicle control (75 mg/kg BIDx1, 72 h): 1.28 fold or % | Dapk1 fold increase or percent reduction vs vehicle control (75 mg/kg BIDx1, 72 h): 1.11 fold or % | Dnmt1 fold increase or percent reduction vs vehicle control (75 mg/kg BIDx1, 72 h): 1.02 fold or % | E2f1 fold increase or percent reduction vs vehicle control (75 mg/kg BIDx1, 72 h): 1.14 fold or % | E2f3 fold increase or percent reduction vs vehicle control (75 mg/kg BIDx1, 72 h): 15.87 fold or % | Egfr fold increase or percent reduction vs vehicle control (75 mg/kg BIDx1, 72 h): 24.18 fold or % | Egr1 fold increase or percent reduction vs vehicle control (75 mg/kg BIDx1, 72 h): 40.49 fold or % | Ep300 fold increase or percent reduction vs vehicle control (75 mg/kg BIDx1, 72 h): 9.15 fold or % | Ercc1 fold increase or percent reduction vs vehicle control (75 mg/kg BIDx1, 72 h): 29.53 fold or % | Esr1 fold increase or percent reduction vs vehicle control (75 mg/kg BIDx1, 72 h): 1.39 fold or % | Fadd fold increase or percent reduction vs vehicle control (75 mg/kg BIDx1, 72 h): 1.43 fold or % | Fas fold increase or percent reduction vs vehicle control (75 mg/kg BIDx1, 72 h): 12.05 fold or % | Fasl fold increase or percent reduction vs vehicle control (75 mg/kg BIDx1, 72 h): 1.42 fold or % | Foxo3 fold increase or percent reduction vs vehicle control (75 mg/kg BIDx1, 72 h): 14.18 fold or % | Gadd45a fold increase or percent reduction vs vehicle control (75 mg/kg BIDx1, 72 h): 25.11 fold or %
